Source: US9428472B2, “Methods of treating bacterial infections with 1,2-benzisothiazolinone and isoindolinone derivatives” (GEORGETOWN UNIVERSITY, priority 2011, dated 2016)
Values after ≈ are worked out from the molar mass of the structure shown. Like-named read-outs stand apart in the source and are kept apart here.

Legend:
[1] = system: Enterococcus fecalis 29212; assay: Disc-diffusion method (disc inhibition testing); assay type: cell-based; settings: read-out: Zone diameter
Protocol: (§1) An inoculum of the tested organism was made from an 18-24 h agar plate and was grown overnight to 0.5 McFarland standard. This suspension was then spread on a fresh Mueller-Hinton plate in the following manner: Optimally, within 15 minutes after adjusting the turbidity of the inoculum suspension, a sterile cotton swab was dipped the suspension. The swab was rotated several times and pressed firmly on the inside wall of the tube to remove excess inoculum. The dried surface of the Mueller-Hinton agar plate was then inoculated by streaking the swab over the entire sterile agar surface. Discs of sterile filter paper were inoculated with standard amounts of compounds (5, 10 and 25 microgram) and were dried before application on to the streaked plate. A control disc with the same DMSO % as the test discs were also applied to the plate. The plates were inverted after 15 minutes and were placed in an incubator set to 35° C. After 16-18 h, the plates were examined. The circular zones of inhibition were evaluated by measuring the diameter of the circular margin with no obvious visible growth. The inhibition diameters of standardized drugs against the tested organism were also determined simultaneously and are compared to those mentioned in CLSI M02-A10.

[2] = system: Enterococcus fecalis 51299 (VRE); assay: Disc-diffusion method (disc inhibition testing); assay type: cell-based
Protocol: as §1

Group A Streptococci = assay: Disc-diffusion method (disc inhibition testing); assay type: cell-based; settings: read-out: Zone diameter
Protocol: as §1

Micrococcus sp = assay: Disc-diffusion method (disc inhibition testing); assay type: cell-based; settings: read-out: Zone diameter
Protocol: as §1

[3] = system: Staphylocccus saprophyticus; assay: Disc-diffusion method (disc inhibition testing); assay type: cell-based; settings: read-out: Zone diameter
Protocol: as §1

[4] = system: Staphylococcus aureus 25923; assay: Disc-diffusion method (disc inhibition testing); assay type: cell-based; settings: read-out: Zone diameter
Protocol: as §1

[5] = system: Staphylococcus aureus 29213; assay: Disc-diffusion method (disc inhibition testing); assay type: cell-based; settings: read-out: Zone diameter
Protocol: as §1

[6] = system: Staphylococcus aureus 43300 (MRSA); assay: Disc-diffusion method (disc inhibition testing); assay type: cell-based
Protocol: as §1

Aeromonas sp = assay: Disc-diffusion method (disc inhibition testing); assay type: cell-based; settings: Conc. 10/25/50 μg
Protocol: as §1, with “Discs of sterile filter paper were inoculated with standard amounts of compounds (5, 10 and 25 microgram) and were dried before application on to the streaked plate.” left out

E. Coli 25922 = assay: Disc-diffusion method (disc inhibition testing); assay type: cell-based; settings: Conc. 10/25/50 μg
Protocol: as §1, with “Discs of sterile filter paper were inoculated with standard amounts of compounds (5, 10 and 25 microgram) and were dried before application on to the streaked plate.” left out

Klebsiella oxytoca = assay: Disc-diffusion method (disc inhibition testing); assay type: cell-based; settings: Conc. 10/25/50 μg
Protocol: as §1, with “Discs of sterile filter paper were inoculated with standard amounts of compounds (5, 10 and 25 microgram) and were dried before application on to the streaked plate.” left out

Klebsiella pnemonia 1705 = assay: Disc-diffusion method (disc inhibition testing); assay type: cell-based; settings: Conc. 10/25/50 μg
Protocol: as §1, with “Discs of sterile filter paper were inoculated with standard amounts of compounds (5, 10 and 25 microgram) and were dried before application on to the streaked plate.” left out

Proteus sp 35651 = assay: Disc-diffusion method (disc inhibition testing); assay type: cell-based; settings: Conc. 10/25/50 μg
Protocol: as §1, with “Discs of sterile filter paper were inoculated with standard amounts of compounds (5, 10 and 25 microgram) and were dried before application on to the streaked plate.” left out

Pseudomonas aeroginosa = assay: Disc-diffusion method (disc inhibition testing); assay type: cell-based; settings: Conc. 10/25/50 μg
Protocol: as §1, with “Discs of sterile filter paper were inoculated with standard amounts of compounds (5, 10 and 25 microgram) and were dried before application on to the streaked plate.” left out

Shigella sp = assay: Disc-diffusion method (disc inhibition testing); assay type: cell-based; settings: Conc. 10/25/50 μg
Protocol: as §1, with “Discs of sterile filter paper were inoculated with standard amounts of compounds (5, 10 and 25 microgram) and were dried before application on to the streaked plate.” left out

Streptococcus pneumoniae = assay: Disc-diffusion method (disc inhibition testing); assay type: cell-based; settings: Conc. 10/25/50 μg
Protocol: as §1, with “Discs of sterile filter paper were inoculated with standard amounts of compounds (5, 10 and 25 microgram) and were dried before application on to the streaked plate.” left out

[7] = system: Staphylococcus saprophyticus, Staphylococcus aureus, Micrococcus sp., Enterococcus fecalis and Group A Streptococcus; assay: Broth microdilution method, MIC-50 over the tested organisms; assay type: cell-based
Protocol: (§2) The in vitro toxicity of these compounds was determined by the neutral red (both compounds I-1 and I-2) and MTT (3-(4,5-Dimethylthiazol-2-yl)-2,5-diphenyltetrazolium bromide) assay (compound I-1) in human hepatic cell lines Huh7 and HepG2.
96 well plates were used to determine the MIC-50 endpoints for most fastidious organisms. The tested compounds were diluted in RPMI to 50 microgram/ml and 0.1 ml was added to the first well. Two-fold dilutions were made in subsequent wells in RPMI to get a range of concentrations from 0.1-50 μg/ml. The volume of diluted compound in each well was 100 microliter. Bacteria were grown in Mueller-Hinton Broth from a single colony from a fresh plate of the tested organism. The broth was grown overnight to 0.5 McFarland standard (10^8 cells) and further diluted in RPMI to get a final inoculum concentration of 5×10^5 CFU/mL. 15 minutes after the inoculum had been standardized as described above, 5 μl of this suspension was inoculated to each well containing 0.1 ml of the tested compound. This plate was then kept at 35° C. for 16-20 h in an ambient air incubator. […] The concentration of inoculum suspension was confirmed by replating on to agar plates. […] The endpoints of standardized drugs are also determined simultaneously and were compared to those mentioned in CLSI M07-08.

[8] = system: Gram-positive bacterial organisms; assay: Screening for antibacterial compounds (disc diffusion method, CSLI M02-A10); assay type: cell-based
Protocol: as §1

HepG2 = assay: In vitro toxicity, neutral red cell viability and MTT assays; assay type: cell-based, human
Protocol: as §2
(§3) The neutral red cell viability assay and the MTT assays were conducted with the active compounds at defined concentrations in human hepatoma cell lines, Huh7 and HepG2, as described by Repetto et al (Repetto G, Peso A. D. & Zurita J. L., Neutral red uptake assay for the estimation of cell viability/cytotoxicity, Nature Protocols 3, 1125-1131 (2008)) and Mosmann et al (Mosmann T., Rapid colorimetric assay for cellular growth and survival: application to proliferation and cytotoxicity assays, Journal of Immunological Methods 65 (1-2): 55-63, (December 1983)) respectively. The cell cytotoxicity (CC-50) concentrations were calculated for the HepG2 cell line.

Huh7 = assay: as above; assay type: cell-based, human
Protocol: as §2, §3

[9] = neutral red (I-1, I-2) and MTT (I-1)

Q: Which results are given for `O=C(Cn1sc2ccccc2c1=O)Nc1ccccc1Oc1ccccc1` [Compound I-2]?
A: zone of inhibition at 10 µg/disc ([1]; Conc. 10 μg): 14 mm; zone of inhibition at 25 µg/disc ([1]; Conc. 25 μg): 16 mm; zone of inhibition at 50 µg/disc ([1]; Conc. 50 μg): 18 mm; zone of inhibition at 10 µg/disc ([2]; Enterococcus, VRE, Conc. 10 μg, read-out: Zone diameter): 17 mm; zone of inhibition at 25 µg/disc ([2]; Enterococcus, VRE, Conc. 25 μg, read-out: Zone diameter): 22 mm; zone of inhibition at 50 µg/disc ([2]; Enterococcus, VRE, Conc. 50 μg, read-out: Zone diameter): 24 mm; activity against Enterococcus fecalis ATCC 51299 (VRE) ([2]; method not named): active; zone of inhibition at 10 µg/disc (Group A Streptococci; Conc. 10 μg): 20 mm; zone of inhibition at 25 µg/disc (Group A Streptococci; Conc. 25 μg): 24 mm; zone of inhibition at 50 µg/disc (Group A Streptococci; Conc. 50 μg): 27 mm; zone of inhibition at 10 µg/disc (Micrococcus sp; Conc. 10 μg): 27 mm; zone of inhibition at 25 µg/disc (Micrococcus sp; Conc. 25 μg): 28 mm; zone of inhibition at 50 µg/disc (Micrococcus sp; Conc. 50 μg): 29 mm; zone of inhibition at 10 µg/disc ([3]; Conc. 10 μg): 22 mm; zone of inhibition at 25 µg/disc ([3]; Conc. 25 μg): 24 mm; zone of inhibition at 50 µg/disc ([3]; Conc. 50 μg): 25 mm; zone of inhibition at 10 µg/disc ([4]; Conc. 10 μg): 18 mm; zone of inhibition at 25 µg/disc ([4]; Conc. 25 μg): 21 mm; zone of inhibition at 50 µg/disc ([4]; Conc. 50 μg): 23 mm; zone of inhibition at 10 µg/disc ([5]; Conc. 10 μg): 16 mm; zone of inhibition at 25 µg/disc ([5]; Conc. 25 μg): 18 mm; zone of inhibition at 50 µg/disc ([5]; Conc. 50 μg): 22 mm; zone of inhibition at 10 µg/disc ([6]; Staphylococcus aureus, MRSA, Conc. 10 μg, read-out: Zone diameter): 19 mm; zone of inhibition at 25 µg/disc ([6]; Staphylococcus aureus, MRSA, Conc. 25 μg, read-out: Zone diameter): 19 mm; zone of inhibition at 50 µg/disc ([6]; Staphylococcus aureus, MRSA, Conc. 50 μg, read-out: Zone diameter): 23 mm; activity against Staphylococcus aureus ATCC 43300 (MRSA) ([6]; method not named): active; Zone diameter (Aeromonas sp): NOT ACTIVE; Zone diameter (E. Coli 25922): NOT ACTIVE; Zone diameter (Klebsiella oxytoca): NOT ACTIVE; Zone diameter (Klebsiella pnemonia 1705): NOT ACTIVE; Zone diameter (Proteus sp 35651): NOT ACTIVE; Zone diameter (Pseudomonas aeroginosa): NOT ACTIVE; Zone diameter (Shigella sp): NOT ACTIVE; Zone diameter (Streptococcus pneumoniae): NOT ACTIVE; MIC50 ([7]; range over the five named organisms, read-out: MIC-50 concentrations): 1 to 15 µg/mL (≈ 2.66 to 39.8 µM); MIC50 ([7]; range over the tested gram positive pathogens, read-out: MIC-50 values): 1 to 15 µg/mL (≈ 2.66 to 39.8 µM); activity against Staphylococcus saprophyticus, Staphylococcus aureus, Micrococcus sp., Enterococcus fecalis and Group A Streptococcus [8]: showed activity; antibiotic activity against Gram-positive bacterial organisms ([8]; disc diffusion screening): antibiotic activity; concentration up to which no toxicity was shown (HepG2): ≥ 100 microgram/ml; in vitro toxicity (HepG2; [9]): Minimal in vitro toxicity; concentration up to which no toxicity was shown (Huh7): ≥ 100 microgram/ml; in vitro toxicity (Huh7; [9]): Minimal in vitro toxicity
